In ChEMBL document CHEMBL1201862, “PubChem BioAssay data set” (2004):
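The compound was tested at five concentrations on cells cultured in 96-well plates, with a 48-hour exposure period. At the GI50, growth is halved.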 The source made the active and inactive calls. No stated cut-off is given here; in the data, active = GI50 up to about 1.1 µM and inactive = higher. Where a SMILES comes first, the peptide text is derived from it. The star is where a group is joined. Boc = CC(C)(C)OC(=O)*; nBu = CCCC*

What was measured:
Experiment in all cases: growth of human tumour cells (NCI), 48 h
786-0 = tested on: 786-0
A498 = tested on: A498
A549 = tested on: A549
ACHN = tested on: ACHN
BT-549 = tested on: BT-549
CAKI-1 = tested on: CAKI-1
CCRF-CEM = tested on: CCRF-CEM
COLO 205 = tested on: COLO 205
DU-145 = tested on: DU-145
HCC 2998 = tested on: HCC 2998
HCT-116 = tested on: HCT-116
HCT-15 = tested on: HCT-15
HL-60 = tested on: HL-60
HOP-62 = tested on: HOP-62
HOP-92 = tested on: HOP-92
HT-29 = tested on: HT-29
Hs-578T = tested on: Hs-578T
IGROV-1 = tested on: IGROV-1
K562 = tested on: K562
KM12 = tested on: KM12
LOX IMVI = tested on: LOX IMVI
M14 = tested on: M14
MCF7 = tested on: MCF7
MDA-MB-231 = tested on: MDA-MB-231
MDA-MB-435 = tested on: MDA-MB-435
MDA-N = tested on: MDA-N
MOLT-4 = tested on: MOLT-4
Malme-3M = tested on: Malme-3M
NCI-H226 = tested on: NCI-H226
NCI-H23 = tested on: NCI-H23
NCI-H460 = tested on: NCI-H460
NCI-H522 = tested on: NCI-H522
NCI/ADR-RES = tested on: NCI/ADR-RES
OVCAR-3 = tested on: OVCAR-3
OVCAR-4 = tested on: OVCAR-4
OVCAR-5 = tested on: OVCAR-5
OVCAR-8 = tested on: OVCAR-8
PC-3 = tested on: PC-3
RPMI-8226 = tested on: RPMI-8226
RXF 393 = tested on: RXF 393
SF-268 = tested on: SF-268
SF-295 = tested on: SF-295
SF-539 = tested on: SF-539
SK-MEL-28 = tested on: SK-MEL-28
SK-MEL-2 = tested on: SK-MEL-2
SK-MEL-5 = tested on: SK-MEL-5
SK-OV-3 = tested on: SK-OV-3
SN12C = tested on: SN12C
SNB-19 = tested on: SNB-19
SNB-75 = tested on: SNB-75
SW-620 = tested on: SW-620
T47D = tested on: T47D
TK-10 = tested on: TK-10
U-251 = tested on: U-251
UACC-257 = tested on: UACC-257
UACC-62 = tested on: UACC-62
UO-31 = tested on: UO-31
EKVX = tested on: EKVX

## CCCCOc1ccc(CC(NC(=O)OC(C)(C)C)C(=O)NC(C)C(=O)NC(Cc2ccccc2)C(=O)NCC(N)=O)cc1 (stereo unspecified) (Boc-Y(nBu)AFG-NH2; configuration not given here)
786-0
  GI50: > 100 µM (inactive)
A498
  GI50: > 100 µM (inactive)
A549
  GI50: > 100 µM (inactive)
ACHN
  GI50: > 100 µM (inactive)
BT-549
  GI50: > 100 µM (inactive)
CAKI-1
  GI50: > 100 µM (inactive)
CCRF-CEM
  GI50: 24.3 µM (inactive)
COLO 205
  GI50: > 100 µM (inactive)
DU-145
  GI50: > 100 µM (inactive)
HCC 2998
  GI50: > 100 µM (inactive)
HCT-116
  GI50: > 100 µM (inactive)
HCT-15
  GI50: > 100 µM
HL-60
  GI50: 22 µM (inactive)
HOP-62
  GI50: > 100 µM (inactive)
HOP-92
  GI50: 61.4 µM (inactive)
HT-29
  GI50: > 100 µM (inactive)
Hs-578T
  GI50: > 100 µM (inactive)
IGROV-1
  GI50: 31.3 µM (inactive)
K562
  GI50: > 100 µM (inactive)
KM12
  GI50: > 100 µM (inactive)
LOX IMVI
  GI50: 65 µM (inactive)
M14
  GI50: > 100 µM (inactive)
MCF7
  GI50: 41.1 µM (inactive)
MDA-MB-231
  GI50: 82.4 µM (inactive)
MDA-MB-435
  GI50: > 100 µM (inactive)
MDA-N
  GI50: 61.9 µM (inactive)
MOLT-4
  GI50: 23 µM (inactive)
Malme-3M
  GI50: > 100 µM (inactive)
NCI-H226
  GI50: > 100 µM (inactive)
NCI-H23
  GI50: > 100 µM (inactive)
NCI-H460
  GI50: > 100 µM (inactive)
NCI-H522
  GI50: 66.5 µM (inactive)
NCI/ADR-RES
  GI50: > 100 µM (inactive)
OVCAR-3
  GI50: > 100 µM (inactive)
OVCAR-4
  GI50: > 100 µM (inactive)
OVCAR-5
  GI50: > 100 µM (inactive)
OVCAR-8
  GI50: > 100 µM (inactive)
PC-3
  GI50: > 100 µM (inactive)
RPMI-8226
  GI50: 32.6 µM (inactive)
RXF 393
  GI50: > 100 µM (inactive)
SF-268
  GI50: > 100 µM (inactive)
SF-295
  GI50: > 100 µM (inactive)
SF-539
  GI50: > 100 µM (inactive)
SK-MEL-28
  GI50: 91 µM (inactive)
SK-MEL-2
  GI50: 18.7 µM (inactive)
SK-MEL-5
  GI50: > 100 µM (inactive)
SK-OV-3
  GI50: > 100 µM (inactive)
SN12C
  GI50: > 100 µM (inactive)
SNB-19
  GI50: > 100 µM (inactive)
SNB-75
  GI50: > 100 µM (inactive)
SW-620
  GI50: > 100 µM (inactive)
T47D
  GI50: > 100 µM (inactive)
TK-10
  GI50: > 100 µM (inactive)
U-251
  GI50: 59.4 µM (inactive)
UACC-257
  GI50: > 100 µM (inactive)
UACC-62
  GI50: > 100 µM (inactive)
UO-31
  GI50: > 100 µM (inactive)

## C[C@]12CC(c3ccccc3O1)C(C(N)=O)C(=O)N2 (stereo partly specified)
786-0
  GI50: > 100 µM (inactive)
A498
  GI50: > 100 µM (inactive)
A549
  GI50: > 100 µM (inactive)
ACHN
  GI50: > 100 µM (inactive)
BT-549
  GI50: > 100 µM (inactive)
CAKI-1
  GI50: > 100 µM (inactive)
CCRF-CEM
  GI50: > 100 µM (inactive)
COLO 205
  GI50: > 100 µM (inactive)
DU-145
  GI50: > 100 µM (inactive)
EKVX
  GI50: > 100 µM (inactive)
HCC 2998
  GI50: > 100 µM (inactive)
HCT-116
  GI50: > 100 µM (inactive)
HCT-15
  GI50: > 100 µM
HL-60
  GI50: > 100 µM (inactive)
HOP-62
  GI50: > 100 µM (inactive)
HOP-92
  GI50: > 100 µM (inactive)
HT-29
  GI50: > 100 µM (inactive)
Hs-578T
  GI50: > 100 µM (inactive)
IGROV-1
  GI50: > 100 µM (inactive)
K562
  GI50: > 100 µM (inactive)
KM12
  GI50: > 100 µM (inactive)
LOX IMVI
  GI50: > 100 µM (inactive)
M14
  GI50: > 100 µM (inactive)
MCF7
  GI50: > 100 µM (inactive)
MDA-MB-231
  GI50: > 100 µM (inactive)
MDA-MB-435
  GI50: > 100 µM (inactive)
MDA-N
  GI50: > 100 µM (inactive)
MOLT-4
  GI50: > 100 µM (inactive)
Malme-3M
  GI50: > 100 µM (inactive)
NCI-H226
  GI50: > 100 µM (inactive)
NCI-H23
  GI50: > 100 µM (inactive)
NCI-H460
  GI50: > 100 µM (inactive)
NCI-H522
  GI50: > 100 µM (inactive)
NCI/ADR-RES
  GI50: > 100 µM (inactive)
OVCAR-3
  GI50: > 100 µM (inactive)
OVCAR-4
  GI50: > 100 µM (inactive)
OVCAR-5
  GI50: > 100 µM (inactive)
OVCAR-8
  GI50: > 100 µM (inactive)
PC-3
  GI50: > 100 µM (inactive)
RPMI-8226
  GI50: > 100 µM (inactive)
RXF 393
  GI50: > 100 µM (inactive)
SF-268
  GI50: > 100 µM (inactive)
SK-MEL-28
  GI50: > 100 µM (inactive)
SK-MEL-2
  GI50: > 100 µM (inactive)
SK-MEL-5
  GI50: > 100 µM (inactive)
SK-OV-3
  GI50: > 100 µM (inactive)
SN12C
  GI50: > 100 µM (inactive)
SNB-19
  GI50: > 100 µM (inactive)
SNB-75
  GI50: > 100 µM (inactive)
SW-620
  GI50: > 100 µM (inactive)
T47D
  GI50: > 100 µM (inactive)
U-251
  GI50: > 100 µM (inactive)
UACC-257
  GI50: > 100 µM (inactive)
UACC-62
  GI50: > 100 µM (inactive)
